Patent publication US20120101163A1, “COMPOSITION FOR INHIBITING CANCER METASTASIS” (TAIPEI MEDICAL UNIVERSITY, priority 2010, published 2012)

Columns and labels:
[1] = system: human umbilical vein endothelial cells; experiment: Tube formation assay (angiogenesis); assay type: cell-based
Experimental: 13. Tube Formation Assay (Malinda et al., 1999)
1μ-Slide Angiogenesis ibiTreat chambers were coated with 10 μl Matrigel™ Mixtrix and placed in an incubator at 37° C. for 1 hour. 40 μl of a 3×10^5 cells/ml cell suspension was added to each chamber and left still for 20 minutes to let the cells attach to the chamber. After that, the medium in each chamber was removed. Fresh mediums with different concentrations of a test drug were added to the chambers, respectively and placed in an incubator at 37° C. After 18 hours, the angiogenesis appearance in each chamber was observed and photographed for recording.

[2] = system: matrix metalloproteinase-2; experiment: Gelatin gel zymography of PMA-induced HT 1080 cells, MMP-2 activity; assay type: cell-based, Human
Experimental: 4. Gelatin Gel Zymography (Shim et al., 2003; Park et al., 2005; Hwang et al., 2006)
HT 1080 cells with appropriate cell numbers were cultured in 60 mm culturing plates for 12 hours, respectively. After the cells were attached onto the bottom of the plate and formed a monolayer, the medium in the plate was removed. Fresh serum free mediums with different concentrations of a test sample were added to the plates, respectively, and 100 nM PMA was added to each plate to induce the cells to express great quantities of matrix metalloproteinase-2 and matrix metalloproteinase-9, and the plates were placed in a temperature of 37° C. for 24 hours. After centrifugation, each cultured supernatant were saved and mixed with SDS-sample buffer under the same protein contents which were then injected into a 10% SDS-polyacrylamide gel (containing 1 mg/ml gelatin) and then electrophoresed. After the electrophoresis was completed, the gel was taken out and washed with 20 mM Tris-HCl containing 25% isopropanol three times; 10 minutes per time. Then the gel was equilibrated with 20 mM Tris-HCl for 30 minutes, and finally an incubate buffer (5 mM CaCl2 and 1 mM ZnCl2) was added to the gel and reacted with the gel overnight. Then the gel was stained with coomassie blue, and positions having matrix metalloproteinase activity of the gel presented a white color.

[3] = system: matrix metalloproteinase-9; experiment: RT-PCR, MMP-9 gene expression in HT 1080 cells; assay type: cell-based, Human
Experimental: 7. RNA Extraction and Reverse Transcription-Polymerase Chain Reaction (RT-PCR)
HT 1080 cells with appropriate cell numbers were cultured in 60 mm culturing plates for 6 hours, respectively. After the cells were attached onto the bottom of the plate and formed a monolayer, the medium in the plate was removed. Fresh serum free mediums with different concentrations of a test sample were added to the plates, respectively, and 100 nM PMA was added to each plate to induce the cells to express great quantities of matrix metalloproteinase-2 and matrix metalloproteinase-9, and the plates were placed in a temperature of 37° C. for 6 hours. After that, the total RNA of the cells were extracted with the TRIzol reagent and reverse transcripted by a reverse transcriptase to synthesize cDNA. The synthesize cDNA was used as a template to perform GADPH, matrix metalloproteinase-2 and matrix metalloproteinase-9 PCR amplifications.

[4] = system: B16-F10 cell line; experiment: Tumor metastasis in an animal model (lung metastasis induced by B16-F10); assay type: in vivo, C57BL/6 mice; conditions: mice, 50 mg/kg/day, 21 days
Experimental: 12. Tumor Metastasis in an Animal Model (Itoh et al., 2005; Lee et al., 2005; Ouyang et al., 2005; Zhang et al., 2005)
Experimental animal: C57BL/6, gray-brown fur
C57BL/6 mice were injected with 2×10^5 cells/0.1 ml of a B16-F10 cell line by a tail intravenous injection. Then, on the next day the mice were injected with a physiological saline solution or 50 mg/kg drug, daily, for 3 weeks. The mice were sacrificed and their lungs were removed at the third week. The lungs were washed with a PBS buffer and fixed with Bouin's solution.

[5] = system: human umbilical vein endothelial cells; experiment: Cell viability assay of human umbilical vein endothelial cells; assay type: cell-based; conditions: 24 hours
Experimental: A medium in a culturing plate containing cells grown covering the whole bottom of the culturing plate, was removed. The cells were washed with 10 ml of PBS, and then suspended and mixed well with 10 ml of medium (a part of the cells need to be suspended with Trypsin-EDTA buffer). The numbers of the cells were calculated by a hemocytometer, and the cells were diluted to an appropriate cell concentration and added into the wells of a 24 well culturing plate by an amount of 500 μl/well. The 24 well culturing plates were placed in an incubator at 37° C. in a humidified atmosphere containing 5% CO2. After the cells were attached onto the bottom of the wells, the medium in each well was removed, and fresh mediums with different concentrations of a test drug were added into wells, respectively (if the cells were suspension cells, the fresh medium may be added into the wells, directly). Then, the 24 well culturing plates were placed in an incubator at 37° C. in a humidified atmosphere containing 5% CO2 for 24 hours. After that, an upper medium in each well was removed. The cells were washed with a PBS buffer twice, and then an MTT solution which was prepared with a medium was added to each well. After the 24 well culturing plates were placed in an incubator at 37° C. for reacting 4-6 hours, an upper medium in each well was removed, and 100 μl of DMSO was added to each well to solubilize the formazan precipitates. After that, an ELISA reader was used to determine the absorbance for each well at 600 nm.
After human umbilical vein endothelial cells were treated with the different concentrations of L-Aspartic acid β-hydroxamate (CH) and different concentrations of L-Glutamic acid γ-hydroxamate (DH) for 24 hours, respectively, the cell viability assays were performed to the treated human umbilical vein endothelial cells and the angiogenesis conditions of the human umbilical vein endothelial cells were recorded. The results of the cell viability assays are shown as FIGS. 13 (A) and 14 (A). Photographs for the human umbilical vein endothelial cells treated with L-Aspartic acid β-hydroxamate (CH) and human umbilical vein endothelial cells treated with L-Glutamic acid γ-hydroxamate (DH) are shown as FIGS. 13 (B) and 14 (B), respectively.

For `NC(CCC(=O)NO)C(=O)O` [DH, L-Glutamic acid γ-hydroxamate], the “inhibition rate to angiogenesis” value ([1]; about 0.1-1.5 mM, stated as embodiment) was 10-90%, the “angiogenesis compared with the control group” value ([1]; increasing concentrations) was “significantly inhibited” and the “protein activity of matrix metalloproteinase-2 secreted out of and left in HT 1080 cells” value ([2]; 0.4, 0.8, 1.2, and 1.6, 24 hours) was “also decreased”. For the same compound, the “inhibition rate to the activity of matrix metalloproteinase-2” value ([2]; HT 1080 cells treated 24 hours) was “greater than 50%”, the “matrix metalloproteinase-2 inhibiting activity” value ([2]; HT 1080 cells, 0.4, 0.8, 1.2 and 1.6 mM, 24 hours) was “increased while the concentration thereof was increased” and the “inhibition rate to the protein activity of metalloproteinase-2 of a cancer cell” value ([2]; about 0.1-2 mM, stated as embodiment, 'and/or' MMP-9) was 40-70%. The “gene expression (mRNA) of matrix metalloproteinase-9” value ([3]; HT 1080 cells, 0.4, 0.8, 1.2, and 1.6, 6 hours, RT-PCR) was “decreased”, the “inhibition rate to the gene transcriptional expression of matrix metalloproteinase-9 of a cancer cell” value ([3]; about 0.1-2 mM, stated as embodiment, 'and/or' MMP-2) was 20-80% and the “lung metastasis and amount of metastasized pulmonary nodules” value [4] was “significantly decreased”. For the same compound, the lung weight [4] was “recovered to a level similar to that of the control group”, the “pathological symptoms (fur picking, weight loss, hind limb debility) due to cancer metastasis, compared to blank group” value [4] was “decreased” and the “survival till the end of the experiment” value ([4]; blank group 2 of 6 survived) was “six mice all survived”. For the same compound, the “cytotoxicity to human umbilical vein endothelial cells” value ([5]; 0.25 mM) was “no cytotoxicity” and the “viability of human umbilical vein endothelial cells” value ([5]; 0.75 mM) was “slight decreases”.
